Source: patent publication US20150359794A1, “IMPAIRMENT OF THE LARGE RIBOSOMAL SUBUNIT PROTEIN RPL24 BY DEPLETION OR ACETYLATION” (Buck Institute for Research on Aging, priority 2014, published 2015)

How the values were obtained:
Type in all cases: cell-based, human
[1] = test system: HER2 mRNA; test: Northern blot of HER2 transcript levels; settings: SKBR3 cells, TSA 1 μM, 6 h
Description: Previous studies have shown that pan-inhibitors of class I and II histone deacetylases, like TSA, can rapidly destabilize a number of oncogenic transcripts including HER2 in a cycloheximide-dependent manner (FIG. 9). […] Thus, SKBR3 cells were treated with TSA to evaluate polysome protein acetylation and determine if, similar to RPL24 depletion, histone deacetylase inhibition can affect ribosome assembly dynamics. To detect early (2 h) ribosome or polysome acetylation following histone deacetylase inhibition treatment (1 μM TSA), SKBR3 polysomes were isolated using a discontinuous sucrose gradient as previously described. […] Mass spectrometry studies indicate that 15 ribosomal proteins, 11 large subunit proteins (RPL24 included) and 4 small subunit proteins, underwent at least a two-fold induction in acetylation following 2 h or 6 h TSA treatment (1 μM) (FIG. 4b, FIG. 10a-q).
Cells are harvested and RNA is extracted using Trizol (Life Technologies) per manufacturer's protocol. Northern blots are performed as previously described. Briefly, RNA is then electrophoresed into 1% agarose-formaldehyde gels and transferred onto PVDF membranes. Membranes are then hybridized with ^32P-labelled cDNA probes for HER2 or GAPDH, washed, and visualized by autoradiography.
SKBR3 cells were treated with TSA (1 μM, 6 h) and/or cycloheximide (CX, 50 μg/ml, 6 h) or with the respective vehicle controls. […]

[2] = test system: ribosomal proteins; test: Mass spectrometry of acetylated ribosomal proteins in polysome pellets; settings: SKBR3 cells, TSA 1 μM, 2 h or 6 h
Description: Previous studies have shown that pan-inhibitors of class I and II histone deacetylases, like TSA, can rapidly destabilize a number of oncogenic transcripts including HER2 in a cycloheximide-dependent manner (FIG. 9). […] Thus, SKBR3 cells were treated with TSA to evaluate polysome protein acetylation and determine if, similar to RPL24 depletion, histone deacetylase inhibition can affect ribosome assembly dynamics. To detect early (2 h) ribosome or polysome acetylation following histone deacetylase inhibition treatment (1 μM TSA), SKBR3 polysomes were isolated using a discontinuous sucrose gradient as previously described. […]
To prepare polysome samples for mass spectrometry, cells are treated with a histone deacetylase inhibitor and polysome pellets are prepared using a discontinuous sucrose gradient as described above. Protein concentration is determined using the Pierce BCA Protein Assay Kit (Thermo Scientific) and equal amount of protein are trypsin digested. […]
Three biological replicates of polysome or 60S samples are then analyzed by LC-MS/MS using a quadrupole time-of-flight (QqTOF) TripleTOF 5600 mass spectrometer (AB SCIEX, Dublin, Calif.) coupled to an Eksigent (Dublin, Calif.) nanoLC Ultra, 2D plus. […] Quantitative data analysis of acetyl-lysine peptides is performed by integration of selected molecular ion intensities using Skyline MS1 Filtering as previously described. […]

[3] = test system: tubulin; test: Western blot for tubulin acetylation in SKBR3 cells; settings: western blot (FIG. 4c,d)
Text: Like TSA, the HDAC6 (class IIb)-selective inhibitors, Tubacin and Compound 101, as well as HDAC6 siRNA, all induce tubulin acetylation as expected as well as ribosomal protein acetylation, including the band that co-migrates with RPL24 (FIG. 4c,d, indicated by arrows). […] Thus, the tubulin acetylating effects of pan-histone deacetylase inhibition, known to be mediated by inhibition or knockdown of HDAC6, correspond to the observed ribosome and RPL24 acetylation responses induced by TSA.
Cells are lysed in RIPA buffer (10 mM Tris-HCL (pH 8.0), 1 mM EDTA, 0.5 mM EGTA, 1% triton X-100, 0.1% sodium deoxycholate, 0.1% SDS, 140 mM NaCl, 20 mM NaF, Complete EDTA-free protease inhibitor tablets (Roche Diagnostics Corp., Basel, Switzerland) and the phosphatase inhibitor cocktail PhosSTOP (Roche)), the latter two as indicated by the manufacturer's protocol. Equal amounts of protein are diluted in 2× sample buffer. Immunoblots on PVDF (Polyvinyldene Fluoride) membranes are blocked with nonfat milk in tris-buffered saline with 0.05% tween-20 (TBST). The following antibodies are incubated with membranes in 5% nonfat milk in TBST: RPL24 (Proteintech, Chicago, Ill.), Cyclin D1, Rack1, RPL4 (Santa Cruz Biotechnology, Santa Cruz, Calif.), NBS1, GAPDH (EMD Millipore Corporation, Chicago, Ill.), Survivin, β-tubulin, acetyl-lysine, eIF6, acetyl-H2B, H2B, (Cell Signaling Technology, Boston, Mass.), acetyl-tubulin, tubulin (Sigma Aldrich (St. Louis, Mo.))
FIG. 4: Ribosomal protein acetylation is induced by histone deacetylase inhibition. (a-c) SKBR3 cells were treated with the indicated drugs for the indicated period of time. (d) SKBR3 cells were transfected with the indicated siRNAs and allowed to incubate for 72 hours. (a, c, d). The indicated western blots were performed in ribopellets, total cytoplasmic lysates, or nuclear extracts. (b) Mass spectrometry was performed on ribopellets as described in materials and methods and in FIG. 6. The fold change in acetylated peptide to total peptide case by TSA treatment is plotted. Only proteins that underwent at least a two-fold induction upon TSA treatment are shown. Error bars represent the standard error of the mean for three biological replicates.

SMILES: CC(/C=C/C(=O)NO)=C\[C@@H](C)C(=O)c1ccc(N(C)C)cc1 [TSA, trichostatin-A]
- HER2 mRNA decay [1]: TSA-induced HER2 mRNA decay
- number of ribosomal proteins with at least a two-fold induction in acetylation [2]: 15
- tubulin acetylation [3]: induce
